Assay results: publication PMC2974002 (Journal of medicinal chemistry, 2010)
Read-outs that look alike come from different tables or passages of the source.

Assays:
[1] = Stability to BnSH without soluble base; assay type: physicochemical; settings: for stability to treatment with BnSH: BnSH in THF (72 h, 23 °C) or MeOH (72 h, 23 °C)
[2] = tested on: L1210 murine leukemia cells; assay type: in vivo, DBA/2J mice; settings: i.p. on days 1, 5 and 9; for antitumor activity (in words): compared with free drug 11
L1210 cells = assay: Cell growth inhibition in a cytotoxic assay with L1210 cells; assay type: cell-based, murine; settings: for decrease in cytotoxic potency relative to 5: ratio to 5
[3] = Stability in pH 7.0 phosphate buffer; assay type: physicochemical; settings: 72 h
[4] = Thiol cleavage of prodrugs with BnSH; assay type: physicochemical
[5] = clean release of 11; cited from earlier work
DNA = settings: cell free systems; cited from earlier work

Molecule | stability to treatment with BnSH [1] | antitumor activity (in words) [2] | decrease in cytotoxic potency relative to 5 (L1210 cells) | cleavage in pH 7.0 phosphate buffer [3] | half-life [4] | half-life in human plasma (t1/2) [5] | DNA alkylation (DNA) | half-life ([4]; BnSH (100 equiv) and NaHCO3 (100 equiv) in MeOH) | cleavage by BnSH ([1]; under all conditions examined) | dose of maximal effect ([2]; dose range 10–100 μg/kg) | IC50 (L1210 cells) | potency of natural (1S)-enantiomer relative to unnatural (1R)-enantiomer (L1210 cells)
NC(=O)NOc1cc2c(c3ccccc13)C(CCl)CN2C(=O)c1cc2cc(NC(=O)c3cc4ccccc4[nH]3)ccc2[nH]1 (centres unmarked) [compound 3, N-(2-(1-(Chloromethyl)-5-(ureidooxy)-2,3-dihydro-1H-benzo[e]indole-3-carbonyl)-1H-indol-5-yl)-1H-indole-2-carboxamide] | stable | active, albeit only at higher doses | ten times | no significant cleavage | 35 h | – | – | – | – | – | – | –
COC(=O)NOc1cc2c(c3ccccc13)C(CCl)CN2C(=O)c1cc2cc(NC(=O)c3cc4ccccc4[nH]3)ccc2[nH]1 (centres unmarked) [compound 4, Methyl(3-(5-(1H-indole-2-carboxamido)-1H-indole-2-carbonyl)-1-(chloromethyl)-2,3-dihydro-1H-benzo[e]indol-5-yl)oxycarbamate] | stable | active, albeit only at higher doses | five times | no significant cleavage | 10 h | – | – | – | – | – | – | –
CC(C)(C)OC(=O)NOc1cc2c(c3ccccc13)C(CCl)CN2C(=O)c1cc2cc(NC(=O)c3cc4ccccc4[nH]3)ccc2[nH]1 (centres unmarked) [compound 5, tert-Butyl(3-(5-(1H-indole-2-carboxamido)-1H-indole-2-carbonyl)-1-(chloromethyl)-2,3-dihydro-1H-benzo[e]indol-5-yl)oxycarbamate] | stable | matched or exceeded the efficacy of the free drug 11 at each dose | – | no significant cleavage | – | 3 to 6 h | incapable of alkylating DNA | 6 h | – | – | – | –
CC(C)(C)C(=O)NOc1cc2c(c3ccccc13)C(CCl)CN2C(=O)c1cc2cc(NC(=O)c3cc4ccccc4[nH]3)ccc2[nH]1 (centres unmarked) [compound 6, N-(2-(1-(Chloromethyl)-5-(pivalamidooxy)-2,3-dihydro-1H-benzo[e]indole-3-carbonyl)-1H-indol-5-yl)-1H-indole-2-carboxamide] | – | – | – | completely cleaved | < 0.5 h | – | – | – | rapidly cleaved | – | – | –
CN(Oc1cc2c(c3ccccc13)C(CCl)CN2C(=O)c1cc2cc(NC(=O)c3cc4ccccc4[nH]3)ccc2[nH]1)C(=O)OC(C)(C)C (centres unmarked) [compound 8, tert-Butyl(3-(5-(1H-indole-2-carboxamido)-1H-indole-2-carbonyl)-1-(chloromethyl)-2,3-dihydro-1H-benzo[e]indol-5-yl)oxy(methyl)carbamate] | stable | – | nine-fold | no significant cleavage | 48 h | – | – | – | – | – | – | –
seco-CBI-indole2 [compound 11, reference compound] | – | – | – | – | – | – | – | – | – | 0.06 mg/kg | 0.03 nM | ca. 30 fold
